# Measured values published in patent US12017975B2, “Myc-Max inhibitor compound therapeutics for cancer treatment, methods and uses associated therewith” (THE UNIVERSITY OF BRITISH COLUMBIA, priority 2018, dated 2024).
# Read-outs that look alike come from different tables or passages of the source.
# Test system: Myc-Max transcriptional activity
# Assay: Cignal c-Myc luciferase reporter assay in LNCaP cells
# Assay type: cell-based
# Conditions: Homo sapiens, LNCaP; for IC50: TABLE 2, assay not named, values match Myc-Max transcriptional activity, read-out: IC50
# Description: Cell transfection was performed using TransIT-2020™ transfection reagents according to the manufacturer's instructions (Mirus™). LNCaP cells were plated at 10000 cells per well and treated for 1 day with the indicated concentration of compound. Myc reporter activity was measured using the Cignal Myc Reporter Assay Kit™ from Qiagen™ (#336841) according to the manufacturer's instructions. For the UBE2C reporter assay, 22rv1 cells were plated at 10000 cells per well in 96-well plates in RPMI media supplemented with 5% charcoal-stripped serum (CSS) and treated for 1 day with 1 μM, 10 μM and 25 μM of compound.
# Compounds were subjected to experimental evaluation using the commercially available transcriptional assay Cignal c-Myc luciferase reporter assay in LNCaP cells. […] A transiently transfected Myc-driven luciferase reporter allowed the monitoring of Myc-regulated signal in LNCaP upon treatment with the in silico identified compounds.
# [1] = 24 h, LNCaP cells, TABLE 1, read-out: Myc-Max transcriptional activity % inhibition (25 μM)
# [2] = TABLE 5, read-out: % Inhibition 25 μM
# [3] = TABLE 3, read-out: % Inhibition 25 μM
Compound,inhibition at 25 µM [2],also measured
O=C1/C(=C/c2cccs2)SC(=S)N1c1cccc(O)c1 [VPC-70005],–,"inhibition at 25 µM (TABLE 4, read-out: % Inhibition (25 μM)): 65%; inhibition at 25 µM [1]: 65%; IC50: > 25 µM"
CS(=O)(=O)Nc1ccccc1C(=O)OCc1cc(=O)oc2cc(O)ccc12 [VPC-70027],53%,inhibition at 25 µM [1]: 53%
O=C(CN1C(=O)NC2(CCCC2)C1=O)Nc1cccc(C(F)(F)F)c1 [VPC-70066],65%,inhibition at 25 µM [1]: 65%
O=C(CCc1csc(NC(=O)c2ccc(F)cc2)n1)NCCc1ccccc1 [VPC-70131],50%,–
O=C(CSCCO)Nc1ccc(C23CC4CC(CC(C4)C2)C3)cc1 [VPC-70146],52%,–
O=S(O)(=Nc1cccc2[nH]ccc12)C1CCc2n[nH]nc2C1 (stereo not drawn) [VPC-70158],41%,–
Cc1ccc(Nc2ccccc2N=S(=O)(O)c2ccc(C(=O)O)cc2)cc1 [VPC-70163],39%,–
O=C(NCCCc1ccccc1)NC[C@](O)(c1ccccc1)C(F)(F)F [VPC-70205],50%,–
O=C(NCCc1c[nH]c2ccccc12)C(=O)Nc1ccc(F)cc1 [VPC-70209],52%,–
C[C@@H](NC(=O)OCc1ccccc1)C(=O)NCC(=O)Nc1ccc(F)c(F)c1 [VPC-70211],47%,–
Cc1c(NC(=O)[C@H](C)OC(=O)c2cccc(O)c2)c(=O)n(-c2ccccc2)n1C [VPC-70216],40%,–
O=C(NCCc1c[nH]c2ccccc12)c1coc2ccccc2c1=O [VPC-70219],67%,IC50: > 25 µM
O=C(CNC(=O)NCc1ccc(F)cc1)NCc1ccc(OC(F)(F)F)cc1 [VPC-70222],68%,–
Cc1ccc(C(=O)NCC(=O)NCC(=O)Nc2ccc(F)c(F)c2F)cc1C [VPC-70236],32%,–
O=C(CCc1c[nH]c2ccccc12)NCc1noc(-c2ccccc2)n1 [VPC-70240],48%,–
C[C@@H](NC(=O)NC[C@@H](O)COc1cccc(F)c1)c1cccs1 [VPC-70247],35%,–

Compound,inhibition at 25 µM [2],also measured
C[C@@H]1CCNC(=O)[C@H]1NC(=O)NCCCc1cccc(Cl)c1 [VPC-70249],65%,–
O=C(CNC(=O)C1CCCC1)NC[C@@H](O)COc1cccc2ccccc12 [VPC-70252],45%,–
C[C@@H]1CCCC[C@@H]1NC(=O)NCCCn1ccc2ccccc21 [VPC-70255],40%,–
C[C@@H](NC1=NS(=O)(=O)c2ccccc21)C(=O)NCCCSc1ccccc1 [VPC-70258],34%,–
C[C@@H](CCc1ccc(O)cc1)NC(=O)N[C@H]1CCOC2(CCCC2)C1 [VPC-70261],35%,–
O=C(NCCNc1ncccn1)NC[C@@H](O)c1cccc(Cl)c1 [VPC-70263],32%,–
O=C(NCCOc1cccc(Cl)c1)NCC[C@H](O)C(F)(F)F [VPC-70266],38%,–
Cc1nc(C(=O)NC[C@@H](O)COCc2ccccc2)c2ccccn12 [VPC-70267],47%,–
COc1ccc2[nH]cc(CCNC(=O)CCc3nc(-c4ccccc4)no3)c2c1 [VPC-70277],–,inhibition at 25 µM [3]: 95%; IC50: > 25 µM
Cc1ccccc1OC[C@@H](O)C(=O)NCC1(O)C2CC3CC(C2)CC1C3 (stereo partly drawn) [VPC-70283],45%,–
C[C@H](CCc1ccccc1)NC(=O)[C@H]1CCCN(C(=O)CCc2c[nH]c3ccccc23)C1 [VPC-70314],–,inhibition at 25 µM [3]: 93%; IC50: 15 µM
NC(=O)CC[C@H](NC(=O)C1(c2ccccc2)CCN(C(=O)[C@@H]2CCCN2)CC1)C(=O)O [VPC-70318],54%,–
NC(=O)c1ccc(NC(=O)COC(=O)[C@H](Cc2ccccc2)NC(=O)c2ccccc2)cc1 [VPC-70339],50%,–
COc1cccc(NC(=O)c2ccccc2N(C)C(=O)CCC(=O)NCc2ccccc2)c1 [VPC-70340],49%,–
COc1ccccc1CNC(=O)c1ccc(N=S(=O)(O)c2ccc([C@@H](C)O)cc2)cc1 [VPC-70341],50%,–
CC(=O)N1c2ccc(S(=O)(O)=Nc3ccc(C(=O)NCC(=O)O)cc3)cc2C[C@@H]1C [VPC-70343],54%,–
